The values below come from patent US20250243176A1, “(S)-1-(1-ACRYLOYLPIPERIDIN-3-YL)-2-FLUORO-5,6,7,8,9,10-HEXAHYDROCYCLO HEPTA[B]INDOLE-4-CARBOXAMIDE, AND RELATED CRYSTALLINE FORMS, COMPOSITIONS, AND METHODS THEREOF” (GB005, Inc., priority 2021, published 2025).

In general, Solubility refers to the dissolved amount per volume that the medium holds. The solubility is how much of the substance goes into solution per volume.

Holding throughout (assay type): physicochemical
Data set [1] in a line: Approximate solubility, solvent addition method, visual assessment. How it is done: The approximate solubility of the initial solid was determined using a solvent addition method via visual assessment of samples.
Values are rounded to nearest whole number and reported as “<” if dissolution was not observed, and as “>” if dissolution occurred after addition of first aliquot.

A short description of data set [2]: Dynamic vapor sorption (DVS). The method, then:
Moisture sorption/desorption data was collected on a Vsorp Dynamic Moisture Sorption Analyzer (ProUmid GmbH & Co. KG, Germany). The sample was placed into a tared sample chamber and automatically weighed. • Sample temperature 25° C. • Cycle: Full cycle • Adsorption 0, 10, 20, 30, 40, 50, 60, 70, 80, 90 • Desorption 80, 70, 60, 50, 40, 30, 20, 10, 0

Data set [3] in a line: Solubility testing in bio-relevant media (Form III). The note with it: 37° C.; for Solubility / solubility at 1 h: 1 h; for Solubility / solubility at 4 h: 4 h; for Solubility / solubility at 24 h: 24 h; for solubility at 1 h / solubility at 4 h / solubility at 24 h: thermodynamic from solid. The method, then:
FaSSIF Buffer Solution: 6 mL 0.2 M NaOH, 388.7 mg of NaH2PO4, and 608.2 mg of NaCl were dissolved and diluted to 100 mL with water. The pH was 6.51. FaSSIF Media: 34.56 mg of SIF powder was dissolved in 15 mL of FaSSIF buffer solution. The solution was stirred and equilibrated at ambient temperature with light protection for 2 hours. SIF powder was purchased from Biorelevant.com.
FeSSIF Buffer Solution: 408.4 mg of NaOH, 868.5 mg of acetic acid, and 1.1802 g of NaCl were dissolved and diluted to 100 mL with water. The pH of the solution was 4.98. FeSSIF Media: 168.42 mg of SIF powder was dissolved in 15 mL of FeSSIF buffer solution. The solution was protected from light.
FaSSGF Buffer Solution: 222 mg of NaCl were dissolved with water, then added 1N HCl adjust the pH to 1.6. […] The solution was stirred and equilibrated at ambient temperature with light protection for 2 hours.
FaSSIF-V2 Buffer Solution: 154.4 mg NaOH, 246.7 mg of maleic acid and 445.6 mg of NaCl were dissolved and diluted to 100 mL with water. The pH was 6.51. FaSSIF-V2 Media: 28.64 mg of FaSSIF-V2 powder (purchased from Biorelevant.com) was dissolved in 8 mL of FaSSIF-V2 buffer solution. The solution was stirred and equilibrated at ambient temperature with light protection for 2 hours.
FeSSIF-V2 Buffer Solution: […] of NaOH, 710 mg of maleic acid, and 814.4 mg of NaCl were dissolved and diluted to 100 mL with water. The pH of the solution was 5.8. FeSSIF-V2 Media: 156.16 mg of FeSSIF-V2 powder was dissolved in 8 mL of FeSSIF-V2 buffer solution. The solution was protected from light.
Samples were prepared in duplicate for each medium. The suspensions were shaken at 37° C. for up to 24 hours.

Data set [4] in a line: Solid-state stability of Form III. The method, then:
The solid-state stability of Compound 1, Form III was examined in duplicate (sample 1 and sample 2) for 7 days under the conditions below and the resultant solids analyzed by XRPD: • 40° C./75% relative humidity (open); and • 60° C. (capped).
The solid-state stability of Compound 1, Form III was also examined for 3 months under the conditions below: • 40° C./75% relative humidity; and • 25° C./60% relative humidity

Data set [5] in a line: Grinding (mechanical treatment) of Form III. How it is done:
Polymorph screening of Compound 1 was conducted using various crystallization methods, including slurry, cooling and evaporative crystallization, anti-solvent precipitation, thermal and mechanical treatment.

Data set [6] can be described thus: Competition slurry / inter-conversion study of Form I and Form III. The following applies: competition slurry of Form I and Form III in water and heptane; RT to 80° C. The method, then:
Equal amounts of Form I and Form III were mixed in water and heptane to form slurries and stirred at RT (˜25° C.) or 80° C.

≈ marks a conversion by molar mass, not a printed value. Entries after “also recorded” stand apart in the source; their conditions may differ.

In the case of `C=CC(=O)N1CCC[C@@H](c2c(F)cc(C(N)=O)c3[nH]c4c(c23)CCCCC4)C1` [starting material, (S)-1-(1-acryloylpiperidin-3-yl)-2-fluoro-5,6,7,8,9,10-hexahydrocyclohepta[b]indole-4-carboxamide], the Solubility in data set [1] (1,4-dioxane) was about 20000 µg/mL (≈ 52200 µM); in data set [1] (1,4-dioxane, organic solvent or mixture, thermodynamic from solid, 1,4-dioxane, read-out: Solubility), over 20000 µg/mL; in data set [1] (2-butanone (MEK), organic solvent or mixture, thermodynamic from solid, 2-Butanone (MEK), read-out: Solubility), about 8300 µg/mL (≈ 21600 µM); in data set [1] (2-propanol (IPA), organic solvent or mixture, thermodynamic from solid, 2-Propanol (IPA), read-out: Solubility), about 4200 µg/mL (≈ 11000 µM); in data set [1] (Dimethyl sulfoxide (DMSO)), over 250000 µg/mL; in data set [1] (Tetrahydrofuran (THF)), about 25000 µg/mL (≈ 65200 µM). The Solubility was under 600 µg/mL in data set [1] (Water); about 7100 µg/mL (≈ 18500 µM) in data set [1] (acetone, organic solvent or mixture, thermodynamic from solid, Acetone, read-out: Solubility); about 1700 µg/mL (≈ 4430 µM) in data set [1] (acetonitrile, organic solvent or mixture, thermodynamic from solid, Acetonitrile, read-out: Solubility); over 250000 µg/mL in data set [1] (dimethyl sulfoxide (DMSO), organic solvent or mixture, thermodynamic from solid, Dimethyl sulfoxide (DMSO), read-out: Solubility); about 5000 µg/mL (≈ 13000 µM) in data set [1] (ethanol, organic solvent or mixture, thermodynamic from solid, Ethanol, read-out: Solubility); about 2000 µg/mL (≈ 5220 µM) in data set [1] (ethyl acetate, organic solvent or mixture, thermodynamic from solid, Ethyl acetate, read-out: Solubility). Moreover, the Solubility in data set [1] (isopropyl acetate, organic solvent or mixture, thermodynamic from solid, Isopropyl acetate, read-out: Solubility) is about 1500 µg/mL (≈ 3910 µM); in data set [1] (methanol, organic solvent or mixture, thermodynamic from solid, Methanol, read-out: Solubility), about 7100 µg/mL (≈ 18500 µM); in data set [1] (n-Heptane) it was under 600 µg/mL; in data set [1] (n-butanol (NBA), organic solvent or mixture, thermodynamic from solid, n-Butanol (NBA), read-out: Solubility), about 2300 µg/mL (≈ 6000 µM); in data set [1] (n-heptane, organic solvent or mixture, thermodynamic from solid, n-Heptane, read-out: Solubility), under 600 µg/mL; in data set [1] (tetrahydrofuran (THF), organic solvent or mixture, thermodynamic from solid, Tetrahydrofuran (THF), read-out: Solubility) it was over 20000 µg/mL. Further, the Solubility is about 1300 µg/mL (≈ 3390 µM) in data set [1] (toluene, organic solvent or mixture, thermodynamic from solid, Toluene, read-out: Solubility) and under 600 µg/mL in data set [1] (water, thermodynamic from solid, Water, read-out: Solubility).

As for `C=CC(=O)N1CCC[C@@H](c2c(F)cc(C(N)=O)c3[nH]c4c(c23)CCCCC4)C1` [Form III, (S)-1-(1-acryloylpiperidin-3-yl)-2-fluoro-5,6,7,8,9,10-hexahydrocyclohepta[b]indole-4-carboxamide], the hygroscopicity entry in data set [2] (DVS) is “non-hygroscopic”. Besides, in data set [2] (XRPD before and after DVS), the “crystal Form after DVS testing” value is “remained unchanged”. Besides, the “weight gain (DVS)” value in data set [2] (up to 90% RH, 25° C.) is listed as under 0.5%. The Solubility result in data set [3] (FaSSGF, pH 1.6, pH at 24 h 1.7) is “<LOQ”; in data set [3] (pH 5.8 Buffer, pH at 24 h 5.8), “<LOQ”; in data set [3] (pH 6.5 Buffer, pH at 24 h 6.6), “<LOQ”. For the same molecule, the solubility at 1 h was determined as 6 µg/mL (≈ 15.6 µM) in data set [3] (FaSSIF, pH 6.5); 4 µg/mL (≈ 10.4 µM) in data set [3] (FaSSIF-V2, pH 6.5); 73 µg/mL (≈ 190 µM) in data set [3] (FeSSIF, pH 5.0); 120 µg/mL (≈ 313 µM) in data set [3] (FeSSIF-V2, pH 5.8). In addition, the solubility at 4 h in data set [3] (FaSSIF, pH 6.5) amounted to 5 µg/mL (≈ 13 µM); in data set [3] (FaSSIF-V2, pH 6.5), 4 µg/mL (≈ 10.4 µM); in data set [3] (FeSSIF, pH 5.0), 75 µg/mL (≈ 196 µM); in data set [3] (FeSSIF-V2, pH 5.8), 200 µg/mL (≈ 522 µM). The solubility at 24 h in data set [3] (FaSSIF, pH 6.5, pH at 24 h 6.5) was found to be 7 µg/mL (≈ 18.3 µM); in data set [3] (FaSSIF-V2, pH 6.5, pH at 24 h 6.6) it was 4 µg/mL (≈ 10.4 µM); in data set [3] (FeSSIF, pH 5.0, pH at 24 h 5.0) it was 90 µg/mL (≈ 235 µM); in data set [3] (FeSSIF-V2, pH 5.8, pH at 24 h 5.9) it was 180 µg/mL (≈ 469 µM). The solid-state stability entry in data set [4] (3 months, 40° C./75% relative humidity and 25° C./60% relative humidity) was “stable”; in data set [4] (7 days, 40° C./75% relative humidity (open) and 60° C. (capped)), “chemically and physically stable”. The “crystal form after grinding” value in data set [5] is “remained unchanged”. In data set [5], the crystallinity after grinding result is reported as “decreased slightly”. Further, the “relative stability of crystal forms” value in data set [6] is listed as “most stable Form; also recorded: more stable than Form I”.
